{"source": "patent US20250042889A1", "about": "“3CLPRO PROTEASE INHIBITOR” (SHANGHAI QILU PHARMACEUTICAL RESEARCH AND DEVELOPMENT …, priority 2021, published 2025)", "key": {"[1]": {"target": "SARS-COV-2 3CLpro/Mpro protease (Severe acute respiratory syndrome coronavirus 2 (2019-nCoV) (SARS-CoV-2), UniProt P0DTD1)", "assay": "Inhibitory effect on SARS-COV-2 3CLpro/Mpro protease by fluorescence resonance energy transfer", "format": "biochemical", "conditions": "activity intervals A-D"}, "[2]": {"assay": "Pharmacokinetics in vivo experiment in cynomolgus macaques", "conditions": "male, cynomolgus monkey, 10 mg/kg; for AUC / Cmax / Tmax: in vivo, po; for half-life: plasma, cynomolgus macaque, oral administration", "description": "• Basic information of animals • Species: cynomolgus macaque • Grade: conventional grade • Quantity: 18 cynomolgus macaques (male) were used in the drug administration experiment. • Weight: about 2.5 to 4.5 kg • Age: 3 to 5 years old • Source: Huazhen Animal Farm, Conghua City (General Partnership)\nThere are 9 male cynomolgus macaques, 3 cynomolgus macaques/group, 3 groups in total. The animals were fasted for 12 hours before administration, and the test solution was administered by gavage (10 mg/kg), and the administration volume was 2.5 mL/kg.\nThe blood was placed on wet ice, and centrifuged at 1700 g at 4° C. for 10 min within 1.5 h after collection. After centrifugation, the plasma was taken and added into a detection tube. Plasma samples can be stored in a refrigerator below-20° C. within 2 hours after centrifugation.\nWinNonlin 8.1.0.3530 was used to calculate pharmacokinetic parameters."}, "[3]": {"conditions": "male, CD1, mouse, in vivo, po, 10 mg/kg"}, "in vivo": {"assay": "in vivo", "conditions": "male, CD1, mouse"}, "[4]": {"assay": "Pharmacokinetics in vivo experiment in CD1 mice", "conditions": "oral administration, 10 mg/kg"}, "[5]": {"conditions": "read-out: IC50 (nM), Inhibition on SARS-CoV-2 3CLpro/Mpro protease"}}, "note": "Read-outs that look alike come from different tables or passages of the source."}
{"smiles": "CNc1cncc(C(=O)N2CCC[C@@H](Nc3c(C(=O)N4CCCCC4)cc(Br)cc3[N+](=O)[O-])C2)c1", "note": "[Example 31, (R)-(5-bromo-2-((1-(5-(methylamino)nicotinoyl)piperidin-3-yl)amino)-3-nitrophenyl)(piperidin-1-yl)methanone]", "values": [{"measurement": "IC50", "setting": "[1]; [5]", "result": "10 to 50", "unit": "nM"}, {"measurement": "AUC", "setting": "[2]", "result": 0.454, "unit": "µg·h/mL"}, {"measurement": "Cmax", "setting": "[2]", "result": 0.232, "unit": "µg/mL"}, {"measurement": "Tmax", "setting": "[2]", "result": 79.8, "unit": "min"}, {"measurement": "half-life", "setting": "[2]", "result": 29.4, "unit": "min"}, {"measurement": "F", "setting": "[3]", "result": 42.1, "unit": "%"}, {"measurement": "AUC", "setting": "in vivo; in vivo, iv, 1 mg/kg", "result": 0.088, "unit": "µg·h/mL"}, {"measurement": "Vd", "setting": "in vivo; in vivo, iv, 1 mg/kg", "result": 1.56, "unit": "L/kg"}, {"measurement": "clearance", "setting": "in vivo; in vivo, iv, 1 mg/kg", "result": 0.696, "unit": "L/h/kg"}, {"measurement": "AUC", "setting": "in vivo; in vivo, po, 10 mg/kg", "result": 0.369, "unit": "µg·h/mL"}, {"measurement": "Cmax", "setting": "in vivo; in vivo, po, 10 mg/kg", "result": 0.401, "unit": "µg/mL"}, {"measurement": "half-life", "setting": "in vivo; plasma, po, 10 mg/kg", "result": 15, "unit": "min"}]}
{"smiles": "CNc1cncc(C(=O)N2CCC[C@@H](Nc3c(C(=O)N4C[C@@H](C)O[C@@H](C)C4)cc(Br)cc3[N+](=O)[O-])C2)c1", "note": "[Example 34, (5-Bromo-2-((R)-1-(5-(methylamino)nicotinoyl)piperidin-3-yl)amino)-3-nitrophenyl ((2R,6S)-2,6-dimethylmorpholinyl)methanone]", "values": [{"measurement": "IC50", "setting": "[1]; [5]", "result": "10 to 50", "unit": "nM"}, {"measurement": "AUC", "setting": "[2]", "result": 4.09, "unit": "µg·h/mL"}, {"measurement": "Cmax", "setting": "[2]", "result": 1.96, "unit": "µg/mL"}, {"measurement": "Tmax", "setting": "[2]", "result": 79.8, "unit": "min"}, {"measurement": "half-life", "setting": "[2]", "result": 35, "unit": "min"}, {"measurement": "F", "setting": "[3]", "result": 63, "unit": "%"}, {"measurement": "AUC", "setting": "in vivo; in vivo, iv, 1 mg/kg", "result": 0.107, "unit": "µg·h/mL"}, {"measurement": "Vd", "setting": "in vivo; in vivo, iv, 1 mg/kg", "result": 1.02, "unit": "L/kg"}, {"measurement": "clearance", "setting": "in vivo; in vivo, iv, 1 mg/kg", "result": 0.564, "unit": "L/h/kg"}, {"measurement": "AUC", "setting": "in vivo; in vivo, po, 10 mg/kg", "result": 0.702, "unit": "µg·h/mL"}, {"measurement": "Cmax", "setting": "in vivo; in vivo, po, 10 mg/kg", "result": 1.02, "unit": "µg/mL"}, {"measurement": "half-life", "setting": "in vivo; plasma, iv, 1 mg/kg", "result": 6.84, "unit": "min"}, {"measurement": "half-life", "setting": "in vivo; plasma, po, 10 mg/kg", "result": 30, "unit": "min"}]}
{"smiles": "CNc1cncc(C(=O)N2CCC[C@@H](Nc3c(C(=O)N4CCOC(F)(F)C4)cc(Br)cc3[N+](=O)[O-])C2)c1", "note": "[Example 295]", "values": [{"measurement": "IC50", "setting": "[1]; [5]", "result": "10 to 50", "unit": "nM"}, {"measurement": "F", "setting": "[3]", "result": 36.3, "unit": "%"}, {"measurement": "AUC", "setting": "in vivo; in vivo, iv, 1 mg/kg", "result": 0.136, "unit": "µg·h/mL"}, {"measurement": "Vd", "setting": "in vivo; in vivo, iv, 1 mg/kg", "result": 1.06, "unit": "L/kg"}, {"measurement": "clearance", "setting": "in vivo; in vivo, iv, 1 mg/kg", "result": 0.444, "unit": "L/h/kg"}, {"measurement": "AUC", "setting": "in vivo; in vivo, po, 10 mg/kg", "result": 0.494, "unit": "µg·h/mL"}, {"measurement": "Cmax", "setting": "in vivo; in vivo, po, 10 mg/kg", "result": 0.697, "unit": "µg/mL"}, {"measurement": "half-life", "setting": "in vivo; plasma, iv, 1 mg/kg", "result": 7.62, "unit": "min"}, {"measurement": "half-life", "setting": "in vivo; plasma, po, 10 mg/kg", "result": 11.6, "unit": "min"}]}
{"smiles": "CNc1cncc(C(=O)N2CCC[C@@H](Nc3c(C(=O)N4C5CCCC4COC5)cc(Br)cc3[N+](=O)[O-])C2)c1", "note": "[Example 312]", "values": [{"measurement": "IC50", "setting": "[1]; IC50 (nM), Inhibition on SARS-CoV-2 3CLpro/Mpro protease", "result": "10 to 50", "unit": "nM"}, {"measurement": "AUC", "setting": "in vivo; in vivo, iv, 1 mg/kg", "result": 0.095, "unit": "µg·h/mL"}, {"measurement": "Vd", "setting": "in vivo; in vivo, iv, 1 mg/kg", "result": 1.38, "unit": "L/kg"}, {"measurement": "clearance", "setting": "in vivo; in vivo, iv, 1 mg/kg", "result": 0.636, "unit": "L/h/kg"}, {"measurement": "half-life", "setting": "in vivo; in vivo, iv, 1 mg/kg", "result": 7.68, "unit": "min"}, {"measurement": "AUC", "setting": "in vivo; in vivo, po, 10 mg/kg", "result": 0.605, "unit": "µg·h/mL"}, {"measurement": "Cmax", "setting": "in vivo; in vivo, po, 10 mg/kg", "result": 0.594, "unit": "µg/mL"}, {"measurement": "half-life", "setting": "in vivo; in vivo, po, 10 mg/kg", "result": 46.1, "unit": "min"}, {"measurement": "F", "setting": "[4]", "result": 65.5, "unit": "%"}]}
{"smiles": "O=C(c1cc(Br)cc([N+](=O)[O-])c1N[C@@H]1CCCN(C(=O)[C@H]2CNCC(F)(F)C2)C1)N1CCCCC1", "note": "[Example 320]", "values": [{"measurement": "IC50", "setting": "[1]; [5]", "result": "10 to 50", "unit": "nM"}, {"measurement": "F", "setting": "[3]", "result": 27.7, "unit": "%"}, {"measurement": "AUC", "setting": "in vivo; in vivo, iv, 1 mg/kg", "result": 0.156, "unit": "µg·h/mL"}, {"measurement": "Vd", "setting": "in vivo; in vivo, iv, 1 mg/kg", "result": 2.1, "unit": "L/kg"}, {"measurement": "clearance", "setting": "in vivo; in vivo, iv, 1 mg/kg", "result": 0.378, "unit": "L/h/kg"}, {"measurement": "AUC", "setting": "in vivo; in vivo, po, 10 mg/kg", "result": 0.28, "unit": "µg·h/mL"}, {"measurement": "Cmax", "setting": "in vivo; in vivo, po, 10 mg/kg", "result": 0.825, "unit": "µg/mL"}, {"measurement": "half-life", "setting": "in vivo; plasma, iv, 1 mg/kg", "result": 21.6, "unit": "min"}, {"measurement": "half-life", "setting": "in vivo; plasma, po, 10 mg/kg", "result": 26.2, "unit": "min"}]}
{"smiles": "CNc1cncc(C(=O)N2C[C@H](Nc3c(C(=O)N4C[C@@H](C)O[C@@H](C)C4)cc(Br)cc3[N+](=O)[O-])[C@@H](OC)C2)c1", "note": "[Example 321]", "values": [{"measurement": "IC50", "setting": "[1]; [5]", "result": "10 to 50", "unit": "nM"}, {"measurement": "AUC", "setting": "[2]", "result": 0.994, "unit": "µg·h/mL"}, {"measurement": "Cmax", "setting": "[2]", "result": 0.699, "unit": "µg/mL"}, {"measurement": "Tmax", "setting": "[2]", "result": 70.2, "unit": "min"}, {"measurement": "F", "setting": "[3]", "result": 84.7, "unit": "%"}, {"measurement": "AUC", "setting": "in vivo; in vivo, iv, 1 mg/kg", "result": 0.153, "unit": "µg·h/mL"}, {"measurement": "Vd", "setting": "in vivo; in vivo, iv, 1 mg/kg", "result": 7.1, "unit": "L/kg"}, {"measurement": "clearance", "setting": "in vivo; in vivo, iv, 1 mg/kg", "result": 0.372, "unit": "L/h/kg"}, {"measurement": "AUC", "setting": "in vivo; in vivo, po, 10 mg/kg", "result": 1.35, "unit": "µg·h/mL"}, {"measurement": "Cmax", "setting": "in vivo; in vivo, po, 10 mg/kg", "result": 1.64, "unit": "µg/mL"}, {"measurement": "half-life", "setting": "in vivo; plasma, iv, 1 mg/kg", "result": 96, "unit": "min"}, {"measurement": "half-life", "setting": "in vivo; plasma, po, 10 mg/kg", "result": 144, "unit": "min"}]}
{"smiles": "CNc1cncc(C(=O)N2C[C@H](Nc3c(C(=O)N4C[C@@H](C)O[C@@H](C)C4)cc(Br)cc3[N+](=O)[O-])C[C@@H](OC)C2)c1", "note": "[Example 422]", "values": [{"measurement": "IC50", "setting": "[1]; [5]", "result": "50 to 100", "unit": "nM"}, {"measurement": "F", "setting": "[3]", "result": 62.6, "unit": "%"}, {"measurement": "AUC", "setting": "in vivo; in vivo, iv, 1 mg/kg", "result": 0.102, "unit": "µg·h/mL"}, {"measurement": "Vd", "setting": "in vivo; in vivo, iv, 1 mg/kg", "result": 1.32, "unit": "L/kg"}, {"measurement": "clearance", "setting": "in vivo; in vivo, iv, 1 mg/kg", "result": 0.589, "unit": "L/h/kg"}, {"measurement": "AUC", "setting": "in vivo; in vivo, po, 10 mg/kg", "result": 0.628, "unit": "µg·h/mL"}, {"measurement": "Cmax", "setting": "in vivo; in vivo, po, 10 mg/kg", "result": 0.725, "unit": "µg/mL"}, {"measurement": "half-life", "setting": "in vivo; plasma, iv, 1 mg/kg", "result": 6.36, "unit": "min"}, {"measurement": "half-life", "setting": "in vivo; plasma, po, 10 mg/kg", "result": 19.2, "unit": "min"}]}
